# Results taken from patent US10030020B2, “Spirocycle compounds and methods of making and using same” (Abide Therapeutics, Inc., priority 2016, dated 2018).
# Columns and labels:
# MAGL [1] = target: T1, MAGL (Mus musculus (Mouse), UniProt O35678); experiment: In vitro competitive activity-based protein profiling (mouse brain membrane fraction or cell lysates), MAGL band; type: biochemical; conditions: mouse proteome; for inhibition at 1 µM: read-out: MAGL % Inh 1 μM (mouse); for IC50: competitive ABPP
# T1 sequence (O35678 whole entry): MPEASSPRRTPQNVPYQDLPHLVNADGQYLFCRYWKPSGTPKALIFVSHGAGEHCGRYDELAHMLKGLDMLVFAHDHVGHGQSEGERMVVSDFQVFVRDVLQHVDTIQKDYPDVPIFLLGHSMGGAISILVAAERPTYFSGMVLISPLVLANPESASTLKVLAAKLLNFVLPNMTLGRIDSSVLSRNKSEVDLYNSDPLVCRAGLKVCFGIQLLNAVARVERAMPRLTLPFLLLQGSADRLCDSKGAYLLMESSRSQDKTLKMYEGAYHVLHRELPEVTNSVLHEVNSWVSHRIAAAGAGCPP
# Procedure: In Vitro Competitive Activity-Based Protein Profiling.
# Proteomes (mouse brain membrane fraction or cell lysates) (50 μL, 1.0 mg/mL total protein concentration) were preincubated with varying concentrations of inhibitors at 37° C. After 30 min, FP—Rh (1.0 μL, 50 μM in DMSO) was added and the mixture was incubated for another 30 min at 37° C. Reactions were quenched with SDS loading buffer (50 μL-4×) and run on SDS-PAGE.
# ABHD6 [2] = target: T2, ABHD6 (Mus musculus (Mouse), UniProt Q8R2Y0); experiment: In vitro competitive activity-based protein profiling (mouse brain membrane fraction or cell lysates), ABHD6 band; type: biochemical; conditions: mouse proteome; for inhibition at 1 µM: read-out: ABHD6 % Inh 1 μM (mouse); for IC50: competitive ABPP
# T2 sequence (Q8R2Y0 whole entry): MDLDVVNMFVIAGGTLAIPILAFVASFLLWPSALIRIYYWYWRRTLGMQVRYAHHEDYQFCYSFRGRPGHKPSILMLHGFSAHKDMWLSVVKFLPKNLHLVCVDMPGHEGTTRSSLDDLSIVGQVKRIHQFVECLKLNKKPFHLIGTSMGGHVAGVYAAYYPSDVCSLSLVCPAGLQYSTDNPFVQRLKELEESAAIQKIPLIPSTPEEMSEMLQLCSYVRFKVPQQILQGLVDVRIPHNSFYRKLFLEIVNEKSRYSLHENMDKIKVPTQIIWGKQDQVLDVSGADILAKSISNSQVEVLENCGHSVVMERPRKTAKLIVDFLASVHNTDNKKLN
# Outline: (§1)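 Residual hydrolase activity was measured as gel band fluorescence after FP-Rh labelling (30 min, 37° C) of proteomes pretreated 30 min at 37° C with inhibitor.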
# FAAH [3] = target: T3, FAAH (Mus musculus (Mouse), UniProt O08914); experiment: In vitro competitive activity-based protein profiling (mouse brain membrane fraction or cell lysates), FAAH band; type: biochemical; conditions: mouse proteome; for inhibition at 1 µM: read-out: FAAH % Inh 1 μM (mouse); for IC50: competitive ABPP
# T3 sequence (O08914 whole entry): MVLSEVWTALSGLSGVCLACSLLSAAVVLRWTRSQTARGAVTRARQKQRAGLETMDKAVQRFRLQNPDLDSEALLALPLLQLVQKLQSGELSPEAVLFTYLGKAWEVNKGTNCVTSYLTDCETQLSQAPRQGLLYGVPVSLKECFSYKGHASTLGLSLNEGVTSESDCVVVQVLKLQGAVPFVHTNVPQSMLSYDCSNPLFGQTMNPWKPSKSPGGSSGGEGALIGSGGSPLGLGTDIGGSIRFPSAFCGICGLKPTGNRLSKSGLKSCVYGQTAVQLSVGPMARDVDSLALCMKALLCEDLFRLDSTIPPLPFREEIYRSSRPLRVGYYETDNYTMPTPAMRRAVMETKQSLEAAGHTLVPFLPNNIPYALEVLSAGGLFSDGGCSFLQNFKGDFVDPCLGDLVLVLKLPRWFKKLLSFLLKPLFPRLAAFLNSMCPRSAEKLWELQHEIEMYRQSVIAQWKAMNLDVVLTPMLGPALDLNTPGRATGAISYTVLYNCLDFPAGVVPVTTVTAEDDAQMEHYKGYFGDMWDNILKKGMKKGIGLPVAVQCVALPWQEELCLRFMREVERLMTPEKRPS
# Outline: as §1
# MAGL [4] = target: T1, MAGL; experiment: Mouse brain proteomes from inhibitor treated mice (oral gavage, sacrificed 4 h after administration, ABPP analysis); type: in vivo, mouse (C57Bl/6J); conditions: 5 mg/kg oral gavage
# Outline: (§2)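 Oral dosing of C57Bl/6J wild-type mice at 5 mg/kg, brain collection 4 h afterwards, then ABPP of brain proteomes to give % target inhibition.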
# FAAH [5] = target: T3, FAAH; experiment: Mouse brain proteomes from inhibitor treated mice (oral gavage, sacrificed 4 h after administration, ABPP analysis), FAAH; type: in vivo, mouse (C57Bl/6J); conditions: 5 mg/kg oral gavage
# Outline: as §2
# ABHD6 [6] = target: T2, ABHD6; experiment: Mouse brain proteomes from inhibitor treated mice (oral gavage, sacrificed 4 h after administration, ABPP analysis), ABHD6; type: in vivo, mouse (C57Bl/6J); conditions: 5 mg/kg oral gavage
# Outline: as §2
inhibition at 1 µM (MAGL [1]) [%],IC50 (MAGL [1]) [µM],inhibition at 1 µM (ABHD6 [2]) [%],IC50 (ABHD6 [2]) [µM],inhibition at 1 µM (FAAH [3]) [%],IC50 (FAAH [3]) [µM],MAGL % Inh 5 mg/kg (mouse) (MAGL [4]),FAAH % Inh 5 mg/kg (mouse) (FAAH [5]),ABHD6 % Inh 5 mg/kg (mouse) (ABHD6 [6]),Structure (SMILES)
> 75,< 0.1,< 25,> 1,< 25,> 1,### (### is ≥75%),# (# is <25%),# (# is <25%),"O=C(OC(C(F)(F)F)C(F)(F)F)N1CCC2(CCCN2Cc2ccc(C(F)(F)F)cc2N2CC3COCC3C2)CC1 (stereo not drawn) [Example 97, 1,1,1,3,3,3-Hexafluoropropan-2-yl 1-(2-(tetrahydro-1H-furo[3,4-c]pyrrol-5(3H)-yl)-4-(trifluoromethyl)benzyl)-1,8-diazaspiro[4.5]decane-8-carboxylate]"
> 75,< 0.1,< 25,> 1,< 25,> 1,# (# is <25%),# (# is <25%),# (# is <25%),"CS(=O)(=O)NC1CCN(c2cc(Cl)ccc2CN2CCCC23CCN(C(=O)OC(C(F)(F)F)C(F)(F)F)CC3)CC1 [Example 105, 1,1,1,3,3,3-Hexafluoropropan-2-yl 1-(4-chloro-2-(4-(methylsulfonamido)piperidin-1-yl)benzyl)-1,8-diazaspiro[4.5]decane-8-carboxylate]"
> 75,< 0.1,< 25,> 1,< 25,> 1,### (### is ≥75%),# (# is <25%),# (# is <25%),"Cc1c(CN2CCCC23CCN(C(=O)OC(C(F)(F)F)C(F)(F)F)CC3)cccc1N1CC2CCC(C1)O2 [Example 86, 1,1,1,3,3,3-Hexafluoropropan-2-yl 1-(3-(8-oxa-3-azabicyclo[3.2.1]octan-3-yl)-2-methylbenzyl)-1,8-diazaspiro[4.5]decane-8-carboxylate]"
> 75,0.1 to 1,< 25,> 1,< 25,> 1,### (### is ≥75%),# (# is <25%),# (# is <25%),"Cc1c(CN2CCCC23CCN(C(=O)OC(C(F)(F)F)C(F)(F)F)CC3)cccc1N1CCCCC1 [Example 84, 1,1,1,3,3,3-Hexafluoropropan-2-yl 1-(2-methyl-3-(piperidin-1-yl)benzyl)-1,8-diazaspiro[4.5]decane-8-carboxylate]"
> 75,< 0.1,< 25,> 1,< 25,> 1,### (### is ≥75%),# (# is <25%),# (# is <25%),"O=C(OC(C(F)(F)F)C(F)(F)F)N1CCC2(CCCN2Cc2ccc(N3CCCC3)c(Cl)c2)CC1 [Example 128, 1,1,1,3,3,3-Hexafluoropropan-2-yl 1-(3-chloro-4-(pyrrolidin-1-yl)benzyl)-1,8-diazaspiro[4.5]decane-8-carboxylate]"
> 75,< 0.1,< 25,> 1,< 25,> 1,### (### is ≥75%),# (# is <25%),# (# is <25%),"O=C(OC(C(F)(F)F)C(F)(F)F)N1CCC2(CCCN2Cc2ccc(C(F)(F)F)cc2N2CCOCC2)CC1 [Example 67, 1,1,1,3,3,3-Hexafluoropropan-2-yl 1-(2-morpholino-4-(trifluoromethyl)benzyl)-1,8-diazaspiro[4.5]decane-8-carboxylate]"

Structure (SMILES),inhibition at 1 µM (MAGL [1]) [%],IC50 (MAGL [1]) [µM],inhibition at 1 µM (ABHD6 [2]) [%],IC50 (ABHD6 [2]) [µM],inhibition at 1 µM (FAAH [3]) [%],IC50 (FAAH [3]) [µM],MAGL % Inh 5 mg/kg (mouse) (MAGL [4]),FAAH % Inh 5 mg/kg (mouse) (FAAH [5]),ABHD6 % Inh 5 mg/kg (mouse) (ABHD6 [6])
"O=C(OC(C(F)(F)F)C(F)(F)F)N1CCC2(CCCN2Cc2ccc(Cl)cc2)CC1 [Example 62, 1,1,1,3,3,3-Hexafluoropropan-2-yl 1-(4-chlorobenzyl)-1,8-diazaspiro[4.5]decane-8-carboxylate]",> 75,< 0.1,< 25,> 1,< 25,> 1,### (### is ≥75%),## (## is equal to or greater than 25% but less than 75%),## (## is equal to or greater than 25% but less than 75%)
"O=C(OC(C(F)(F)F)C(F)(F)F)N1CCC2(CCN(Cc3ccc(C(F)(F)F)cc3N3CC4COCC4C3)C2)CC1 (stereo not drawn) [Example 26, 1,1,1,3,3,3-Hexafluoropropan-2-yl 2-(2-(tetrahydro-1H-furo[3,4-c]pyrrol-5(3H)-yl)-4-(trifluoromethyl)benzyl)-2,8-diazaspiro[4.5]decane-8-carboxylate]",> 75,< 0.1,≥ 75,0.1 to 1,< 25,> 1,## (## is equal to or greater than 25% but less than 75%),# (# is <25%),# (# is <25%)
"O=C(OC(C(F)(F)F)C(F)(F)F)N1CCC2(CCN(Cc3ccc(C(F)(F)F)cc3N3CCCC3)C2)CC1 [Example 72, 1,1,1,3,3,3-Hexafluoropropan-2-yl 2-(2-(pyrrolidin-1-yl)-4-(trifluoromethyl)benzyl)-2,8-diazaspiro[4.5]decane-8-carboxylate]",> 75,< 0.1,< 25,> 1,< 25,> 1,## (## is equal to or greater than 25% but less than 75%),# (# is <25%),# (# is <25%)
"O=C(OC(C(F)(F)F)C(F)(F)F)N1CCC2(CCCN2Cc2cc(OC3CCOCC3)cc(C(F)(F)F)c2)CC1 [Example 170, 1,1,1,3,3,3-Hexafluoropropan-2-yl 1-(3-(tetrahydro-2H-pyran-4-yloxy)-5-(trifluoromethyl)benzyl)-1,8-diazaspiro[4.5]decane-8-carboxylate]",> 75,< 0.1,< 25,> 1,< 25,> 1,## (## is equal to or greater than 25% but less than 75%),# (# is <25%),# (# is <25%)
"COc1c(Cl)cccc1CN1CCCC12CCN(C(=O)OC(C(F)(F)F)C(F)(F)F)CC2 [Example 10, 1,1,1,3,3,3-Hexafluoropropan-2-yl 1-(3-chloro-2-methoxybenzyl)-1,8-diazaspiro[4.5]decane-8-carboxylate]",,< 0.1,,> 1,,> 1,### (### is ≥75%),## (## is equal to or greater than 25% but less than 75%),# (# is <25%)
"O=C(OC(C(F)(F)F)C(F)(F)F)N1CCC2(CCCN2Cc2cc(N3CCC(F)CC3)cc(C(F)(F)F)c2)CC1 [Example 45, 1,1,1,3,3,3-Hexafluoropropan-2-yl 1-(3-(4-fluoropiperidin-1-yl)-5-(trifluoromethyl)benzyl)-1,8-diazaspiro[4.5]decane-8-carboxylate]",,< 0.1,,> 1,,> 1,## (## is equal to or greater than 25% but less than 75%),# (# is <25%),# (# is <25%)
